Reference: US6610694B1, “Condensed pyridazine compounds, their production and use” (Takeda Chemical Industries, Ltd., priority 1998, dated 2003)
Where a name gives a salt, the structure may show the parent alone.

Columns and labels:
[1] = system: guinea pig eosinophils; assay: Suppression of LTB4-induced chemotactic reaction in guinea pig eosinophils; assay type: cell-based
Method: 1) Preparation of Guinea Pig Eosinophils
To male Hartley guinea pigs, 2 ml of equine serum (Bio-Whittaker, Inc.) was intraperitoneally administered once weekly for 8 consecutive weeks. At 48 hours after final administration, 75 ml of physiological saline was intraperitoneally injected, after which the saline was recovered and centrifuged at 400×g for 5 minutes. The resulting sediment was suspended in 5 ml of Percoll solution (density (d)=1.07) and layered on top of the multiple layers of different densities of Percoll solution (density(d)=1.112, 5 ml; d=1.095, 10 ml; d=1.090, 10 ml; d=1.085, 5 ml), followed by centrifugation at 1,000×g for 25 minutes (20° C.). The cell layer formed at the interface between densities 1.112 and 1.095 was collected. Erythrocytes present in the collected cell sediment were removed by hypotonic treatment (suspended in water for […]).
The cell sediment was washed 3 times with Hanks' solution containing 10 mM Hepes (Dojin Kagaku) (Hanks-Hepes) and suspended in a Hanks-Hepes solution containing 2% human serum albumin (Wako Pure Chemical Industry or Sigma) (Hanks-Hepes-HSA) to a final concentration of 5.56×10^6 cells/ml. Eosinophil purity was 90%, viability being over 98%.
2) Determination of Chemotactic Reaction Suppression
To a 24-well petri dish, which serves as a lower chamber, 600 μl of Hanks-Hepes-HSA solution containing LTB4 (final concentration 10^−8 M, Cascade Biochemical Ltd.), was transferred, followed by incubation at 37° C. for 30 minutes in a carbon dioxide incubator. Separately, 200 μl of eosinophil suspension (5×10^6 cells/ml), previously incubated at 37 C for 15 minutes, was added to Chemotaxicell (polycarbonate membrane, pore size 3 μm, thickness 10 μm), which serves as an upper chamber, after the upper chamber was attached to the 24-well petri dish. After 2 hours of reaction in the CO2 incubator, the Chemotaxicell was removed; 60 μl of a 2% (w/v) solution of EDTA in physiological saline was added to the liquid in the lower chamber. After the mixture was on cooled ice, the cells migrating into the lower chamber were counted using a blood cell counter [Coulter Counter (trade name)]. The test drug, dissolved in N,N-dimethyl formamide (DMF), was added to both the upper and lower chambers to a final concentration of 10^-5 M.
Chemotactic reaction suppression rate=[1−(number of migrating cells in the presence of drug/number of migrating cells in the absence of drug).]×100 Equation 2
Suppression rates of LTB4-induced chemotactic reaction by test substances (1×10^−5 M) were calculated using the above equation.
In the same manner as Experimental Example 2a, the percent suppression of LTB4-induced chemotactic reactions by various example compounds was calculated.

[2] = system: histamine-induced skin reactions in guinea pigs; assay: Effect on histamine-induced skin reactions in guinea pigs (skin vascular permeability); assay type: in vivo, guinea pig; conditions: oral 3 mg/kg
Method: Effect on Histamine-induced Skin Reactions in Guinea Pigs
Male Hartley guinea pigs weighing about 500 g were used. After the dorsal hair was shaved under ether anesthesia, 1 ml of a 2.5% pontamine sky blue solution was injected intravenously administered, and then 0.1 ml of histamine at 3 μg/ml was injected intradermally into 2 sites (left and right) in the back. Thirty minutes after the injection of histamine, the animals were killed by bleeding and the skin was removed. Two perpendicular diameters (mm) of each blue spot on the inside of the skin were measured and multiplied; the mean for the two products was taken as the microvascular permeability index. Test compounds were suspended in a 5% gum arabic solution and orally administered in a volume of 0.2 ml/100 g body weight 1 hour before histamine administration. Animals in the control group received the same volume of a 5% gum arabic solution. The suppression rate of the sample for the title reaction was calculated using Equation 1, and the results are given in Table 1.
Inhibition (%) of histamine-induced skin reactions=100×(1−vascular permeability index in the presence of drug/vascular permeability index in control group) Equation 1
In the same manner as Experimental Example 1a, the effects of various example compounds on histamine-induced skin reactions in guinea pigs were examined.

[3] = LTB4-induced chemotaxis, same manner as Experimental Example 2a (1×10^−5 M), Table 4
[4] = same manner as Experimental Example 1a, Table 3

melting point	SMILES	further results
133 to 136 °C	CC(C)(C(N)=O)c1nnc2ccc(OCCCN3CCC(OC(c4ccccc4)c4ccccc4)CC3)nn12 [Example 23a, 2-[6-[3-[4-(Diphenylmethoxy)piperidino]propoxy][1,2,4]triazolo[4,3-b]pyridazin-3-yl]-2-methylpropionamide]	
139 to 140 °C	Cn1nc2ccc(OCCCN3CCC(OC(c4ccccc4)c4ccccc4)CC3)nn2c1=O [Example 2b, 6-[3-[4-(Diphenylmethoxy)piperidino]propoxy]-2-methyl[1,2,4]triazolo[4,3-b]pyridazin-3(2H)-one]	
152 to 155 °C	CCOC(=O)CNC(=O)c1nnc2ccc(NCCCN3CCC(OC(c4ccccc4)c4ccccc4)CC3)nn12 [Example 29a, N-[6-[3-[4-(Diphenylmethoxy)piperidino]propylamino][1,2,4]triazolo[4,3-b]pyridazine-3-carbonyl]glycine ethyl ester]	
124 to 125 °C	CCOC(=O)Cn1nc2ccc(OCCCN3CCC(OC(c4ccccc4)c4ccccc4)CC3)nn2c1=O [Example 5b, Ethyl 2-[6-[3-[4-(Diphenylmethoxy)piperidino]propoxy]-3-oxo[1,2,4]triazolo[4,3-b]pyridazin-2(3H)-yl]acetate]	
155 to 157 °C	CC(C)(C(=O)O)c1nnc2ccc(NCCCN3CCC(OC(c4ccccc4)c4ccccc4)CC3)nn12 [Example 19a, 2-[6-[3-[4-(Diphenylmethoxy)piperidino]propylamino][1,2,4]triazolo[4,3-b]pyridazin-3-yl]-2-methylpropionic Acid]	
165 to 167 °C	CCOC(=O)C(C)(C)NC(=O)c1nnc2ccc(NCCCN3CCC(OC(c4ccccc4)c4ccccc4)CC3)nn12 [Example 25a, N-[6-[3-[4-(Diphenylmethoxy)piperidino]propylamino][1,2,4]triazolo[4,3-b]pyridazine-3-carbonyl]-2,2-dimethylglycine Ethyl Ester]	
182 to 184 °C	O=C(O)CNC(=O)c1nnc2ccc(NCCCN3CCC(OC(c4ccccc4)c4ccccc4)CC3)nn12 [Example 30a, N-[6-[3-[4-(Diphenylmethoxy)piperidino]propylamino][1,2,4]triazolo[4,3-b]pyridazine-3-carbonyl]glycine]	
129 to 133 °C	CCOC(=O)c1nnc2ccc(NCCCN3CCC(OC(c4ccccc4)c4ccccc4)CC3)nn12 [Example 21a, Ethyl 6-[3-[4-(Diphenylmethoxy)piperidino]propylamino][1,2,4]triazolo[4,3-b]pyridazine-3-carboxylate]	
209 to 211 °C	O=c1[nH]nc2ccc(OCCCN3CCC(OC(c4ccccc4)c4ccccc4)CC3)nn12 [Example 4b, 6-[3-[4-(Diphenylmethoxy)piperidino]propoxy][1,2,4]triazolo[4,3-b]pyridazin-3(2H)-one]	Suppression (%) of histamine-induced skin vascular permeability elevation, oral administration at 3 mg/kg [2, 4]: 92%
163 to 165 °C	CC(C)(NC(=O)c1nnc2ccc(OCCCN3CCC(OC(c4ccccc4)c4ccccc4)CC3)nn12)C(=O)O [Example 28a, N-[6-[3-[4-(Diphenylmethoxy)piperidino]propoxy][1,2,4]triazolo[4,3-b]pyridazine-3-carbonyl]-2,2-dimethylglycine]	
129 °C	CCOC(=O)C(C)(C)n1nc2ccc(OCCCN3CCC(OC(c4ccccc4)c4ccccc4)CC3)nn2c1=O.Cl	
191 to 193 °C	CC(C)(NC(=O)c1nnc2ccc(NCCCN3CCC(OC(c4ccccc4)c4ccccc4)CC3)nn12)C(=O)O [Example 26a, N-[6-[3-[4-(Diphenylmethoxy)piperidino]propylamino][1,2,4]triazolo[4,3-b]pyridazine-3-carbonyl]-2,2-dimethylglycine]	

The next lines start with the molecule.

SMILES	melting point	further results
CC(C)(C)C(=O)OCOC(=O)C(C)(C)n1nc2ccc(NCCCN3CCC(OC(c4ccccc4)c4ccccc4)CC3)nn2c1=O [Example 11b, pivaloyloxymethyl 2-[6-[3-[4-(Diphenylmethoxy)piperidino]propylamino]-3-oxo[1,2,4]triazolo[4,3-b]pyridazin-2(3H)-yl]-2-methylpropionate]	162 °C	Suppression rate (%) [1, 3]: 100%
CC(C)(C(=O)O)n1nc2ccc(NCCCN3CCC(OC(c4ccccc4)c4ccccc4)CC3)nn2c1=O [Example 9b, 2-[6-[3-[4-(Diphenylmethoxy)piperidino]propylamino]-3-oxo[1,2,4]triazolo[4,3-b]pyridazin-2(3H)-yl]-2-methylpropionic Acid]	181 to 185 °C	
c1ccc(C(c2ccccc2)N2CCN(CCCSc3ccc4nncn4n3)CC2)cc1 [Example 2a, 6-[3-[4-(Diphenylmethyl)-1-piperazinyl]propylthio][1,2,4]triazolo[4,3-b]pyridazine]	143 to 144 °C	
c1ccc(C(c2ccccc2)N2CCN(CCCOc3ccc4nncn4n3)CC2)cc1 [Example 1a, 6-[3-[4-(Diphenylmethyl)-1-piperazinyl]propoxy][1,2,4]triazolo[4,3-b]pyridazine]	132 to 134 °C	
c1ccc(C(c2ccccc2)N2CCN(CCCCCCNc3ccc4nncn4n3)CC2)cc1 [Example 11a, 6-[6-[4-(Diphenylmethyl)-1-piperazinyl]hexylamino][1,2,4]triazolo[4,3-b]pyridazine]	133 to 139 °C	
c1ccc(C(OC2CCN(CCOc3ccc4nncn4n3)CC2)c2ccccc2)cc1 [Example 6a, 6-(2-[4-(Diphenylmethoxy)piperidino]ethoxy][1,2,4]triazolo[4,3-b]pyridazine]	149 to 150 °C	
O=c1[nH]nc2ccc(NCCCN3CCC(OC(c4ccccc4)c4ccccc4)CC3)nn12 [Example 3b, 6-[3-[4-(Diphenylmethoxy)piperidino]propylamino][1,2,4]triazolo[4,3-b]pyridazin-3(2H)-one]	156 to 170 °C	Suppression (%) of histamine-induced skin vascular permeability elevation, oral administration at 3 mg/kg [2, 4]: 94%
c1ccc(C(OC2CCN(CCCNc3ccc4nncn4n3)CC2)c2ccccc2)cc1 [Example 4a, 6-[3-(4-(Diphenylmethoxy)piperidino]propylamino][1,2,4]triazolo[4,3-b]pyridazine]	167 to 168 °C	
c1ccc(C(OC2CCN(CCCCCCOc3ccc4nncn4n3)CC2)c2ccccc2)cc1 [Example 7a, 6-[6-[4-(Diphenylmethoxy)piperidino]hexyloxy][1,2,4]triazolo[4,3-b]pyridazine Fumarate]		Suppression (%) of histamine-induced skin vascular permeability elevation, oral administration at 3 mg/kg ([2]; 1 hour before intradermal histamine, Table 1): 89%; Suppression rate (%) ([1]; LTB4 10^−8 M-induced chemotaxis, test substance 1×10^−5 M, Table 2): 36%
OC(COc1ccc2nncn2n1)CN1CCN(C(c2ccccc2)c2ccccc2)CC1 (centres unmarked) [Example 15a, 6-[3-[4-(Diphenylmethyl)-1-piperazinyl]-2-hydroxypropoxy][1,2,4]triazolo[4,3-b]pyridazine]	95 to 97 °C	
CC(C)(C)C(=O)OCn1nc2ccc(NCCCN3CCC(OC(c4ccccc4)c4ccccc4)CC3)nn2c1=O [Example 10b, 6-[3-[4-(Diphenylmethoxy)piperidino]propylamino]-2-(pivaloyloxymethyl)[1,2,4]triazolo[4,3-b]pyridazin-3(2H)-one]	168 to 171 °C	Suppression rate (%) [1, 3]: 55%
c1ccc(C(OC2CCN(CCCCCCOc3ccc4nncn4n3)CC2)c2ccccc2)cc1 (as salt: fumarate) [Example 7a, 6-[6-[4-(Diphenylmethoxy)piperidino]hexyloxy][1,2,4]triazolo[4,3-b]pyridazine Fumarate]	144 to 146 °C	
